Test results reported in article PMC7911516, “Investigation of the Factors Responsible for the Poor Oral Bioavailability of Acacetin in Rats: Physicochemical and Biopharmaceutical Aspects” (Pharmaceutics, 2021).
Read-outs that look alike come from different tables or passages of the source.

Columns and labels:
[1] = Parallel artificial membrane permeability assay (PAMPA); type: in vitro ADME; details: GIT PAMPA Double Sink
Method: Simulated intestinal fluid (SIF) was prepared by dissolving 3 mM sodium taurocholate and 0.1% (w/v) pancreatin in phosphate buffer (final pH = 7.0). The solubility of acacetin was measured by adding excessive amounts of acacetin into glass vials containing 1.5 mL of water, pH 7.4 phosphate buffer, SGF, and SIF. […] The samples were centrifuged at 16,000× g for 5 min, and the supernatant was passed through a 0.20-μm syringe filter to remove excess acacetin. Further, the concentration of acacetin in the filtrate was determined using the LC-MS/MS method. […] Finally, the acacetin concentrations in the octanol and water layers were determined using the LC-MS/MS method. […] The PAMPA was conducted using a commercially available PAMPA kit (GIT PAMPA Double Sink; pION Inc., Massachusetts, MA, USA) according to the manufacturer's protocol. The permeability was calculated using pION PAMPA Explorer ver. 3.8 software (pION Inc., Massachusetts, MA, USA).

[2] = Intravenous pharmacokinetic study in rats; type: in vivo
Method: The rats were fasted overnight before the experiment and anesthetized using an intramuscular injection of zoletil at 20 mg/kg. The femoral artery and vein were cannulated with a polyethylene tube (Clay Adams, Parsippany, NJ, USA). Acacetin (dissolved in a vehicle composed of DMSO, ethanol, and PEG400 (10:5:85, v/v/v)) was administered intravenously (10 mg/kg) or orally (100 mg/kg) to rats. Approximately 250 μL of blood was collected via the femoral artery at 0, 2, 5, 15, 30, 45, 60, 120, and 180 min after intravenous administration and at 0, 2, 5, 15, 30, 45, 60, 90, 120, and 180 min after oral administration. The cannula was flushed with heparin (20 IU/mL in saline) at each time point to prevent blood clotting. Following centrifugation of the blood sample at 8000× g and 4 °C for 2 min, 120 μL of plasma was obtained. Urine was collected at 1-h intervals in an ice-cold container over 24 h. After urine collection at 24 h, each rat was sacrificed by cervical dislocation; the entire GI tract (including its contents and feces) was excised, transferred into a beaker containing 100 mL methanol, and cut into small pieces using scissors. After manual stirring with a glass rod for 1 min, a 50-μL aliquot of the supernatant was collected. The plasma, urine (Ae24h), and GI tract (GI24h) samples were stored at −80 °C until further LC-MS/MS analysis. A noncompartmental analysis (WinNonlin ver. 3.1; Certara USA Inc., Princeton, NJ, USA) was performed to determine the following pharmacokinetic parameters: the AUCinf, area under plasma concentration versus time curve from time zero to the last sampling time (AUClast), t1/2, total body clearance (CL), apparent volume of distribution at steady state (Vss), and absolute oral bioavailability (F). The Cmax and time to reach Cmax (Tmax) were directly obtained from the plasma concentration versus time data.

rat CYP3A = test: Disappearance in RLM with CYP isoform-selective inhibitor KCZ; type: in vitro ADME; details: acacetin 20 μM, 10-μM KCZ, NADPH, 5 min
Method: To investigate hepatic phase I enzymes- and UGT-dependent metabolism of acacetin, the disappearance rate of acacetin at concentrations of 1–200 µM in RLM was measured in the presence of both NADPH and UDPGA. The substrate (acacetin) concentration ((S); µM) versus the initial metabolic rate (V; nmol/min/mg protein) profiles were interpreted based on Michaelis–Menten kinetics, and relevant parameters were estimated via nonlinear regression analysis (GraphPad Prism ver. 5.01; GraphPad Software, San Diego, CA, USA) using the following Michaelis–Menten equation: V = Vmax× [S]/Km× [S] where Km and Vmax are the Michaelis–Menten constant and maximal metabolic rate, respectively. The unbound intrinsic metabolic clearance (CLint) was calculated as Vmax/(Km × fuMIC). Furthermore, the disappearance of acacetin (20 μM) in the absence or presence of specific CYP isoform-selective inhibitors in RLM was determined to study the hepatic CYP-mediated metabolism of acacetin. Microsomal incubation mixtures (total volume of 200 μL) were prepared as follows: RLM (0.5 mg/mL microsomal protein), 1 mM NADPH, 10 mM MgCl2, 50 mM potassium phosphate buffer, acacetin, with or without CYP isoform-selective inhibitors (10 μM NF for rat CYP1A, 10-μM SPZ for rat CYP2C, 10-μM QND for rat CYP2D, and 10-μM KCZ for rat CYP3A). […]

[3] = parameters: method as in PMID 28421306; details: oral, 5 mg/kg in mice; cited from earlier work
[4] = parameters: method as in PMID 25456423; details: oral, 1.4–1.676 mg/kg in rats; cited from earlier work

- Papp [1]: 8.06 ± 0.91 ×10⁻⁶ cm/s
- Urinary and GI (including biliary) excretion of unchanged acacetin ([2]; IV 10 mg/kg): 1.5–12.8 % of dose
- GI24h ([2]; IV 10 mg/kg, GI tract at 24 h): 6.66 ± 5.34 % of dose
- Ae24h ([2]; IV 10 mg/kg, urine 24 h): 2.50 ± 1.15 % of dose
- clearance ([2]; Sprague-Dawley, rat, blood (plasma CL divided by RB), IV 10 mg/kg, read-out: Total blood clearance (CL/RB)): 191 ± 34 mL/min/kg
- clearance ([2]; rat, IV 10 mg/kg, total plasma clearance, read-out: CL): 199 ± 36 mL/min/kg
- AUC(0-inf) ([2]; rat, plasma, IV 10 mg/kg): 855 ng·h/mL
- half-life ([2]; rat, plasma, IV 10 mg/kg): 40.3 ± 7.2 min
- Vd ([2]; rat, plasma, IV 10 mg/kg, read-out: Vss): 2.22 ± 0.507 L/kg
- Hepatic extraction ratio ([2]; speculated from blood clearance vs hepatic blood flow): ~1
- Reduction of relative disappearance rate in presence of KCZ (rat CYP3A): 43.7%
Structure (SMILES): COc1ccc(-c2cc(=O)c3c(O)cc(O)cc3o2)cc1 [acacetin, Acacetin]
- Cmax [3]: 17 ng/mL
- F [3]: 1.30%
- Cmax [4]: 19.02 ng/mL
